Biological target: T1, PPARG (peroxisome proliferator activated receptor-gamma), GST-PPARG-LBD (Homo sapiens, UniProt P37231)
T1 construct: 15 μL of 5 nM GST-PPARG-LBD and 5 nM Tb-GST-antibody were added; purchased Invitrogen PV4894
T1 sequence (P37231 238-503 limits assumed): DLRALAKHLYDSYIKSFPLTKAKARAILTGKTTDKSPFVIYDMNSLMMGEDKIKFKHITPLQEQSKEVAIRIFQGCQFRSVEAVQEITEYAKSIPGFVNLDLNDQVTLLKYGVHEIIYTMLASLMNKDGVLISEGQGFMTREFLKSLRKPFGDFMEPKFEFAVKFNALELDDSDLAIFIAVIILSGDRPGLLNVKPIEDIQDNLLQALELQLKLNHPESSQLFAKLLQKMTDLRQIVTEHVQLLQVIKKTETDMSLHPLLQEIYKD
Test: LanthaScreen TR-FRET PPARG Competitive Binding Assay
Set-up: key: “+” indicates the degree of the binding activity, and as the number of “+” increases, the binding activity is stronger; ++: “+” indicates the degree of the binding activity, and as the number of “+” increases, the binding activity is stronger; +++: “+” indicates the degree of the binding activity, and as the number of “+” increases, the binding activity is stronger; ++++: “+” indicates the degree of the binding activity, and as the number of “+” increases, the binding activity is stronger
Conditions: degree of binding activity
Method: The following experiment was performed to evaluate the PPARG (peroxisome proliferator activated receptor-gamma) binding capacity and transcriptional activity of the compounds prepared in the examples of the invention. For the experiment, LanthaScreen™ TR-FRET PPARG Competitive Binding Assay Kit (PV4894, Invitrogen) was used according to the manufacturer's instruction. […] The mixture was loaded in a 384-well plate (Greiner, 784075) by 20 μL per well, followed by reaction at room temperature for 1 hour. Upon completion of the reaction, fluorescence value was measured by using Flexstation 3 (Molecular Devices) with time-resolved fluorescence (RFU) mode (excitation 1: 340 nm, emission 1: 518 nm, excitation 2: 340 nm, emission 2: 488 nm, integration delay 50 μs, integration 400 μs). The results were calculated by using 518 nm RFUs/488 nm RFUs ratio. The activity of the compounds of the invention was compared with that of the vehicle, which was calculated by ratio according to the formula [100%−compound of the example ratio/vehicle ratio]. At this time, the binding activity ratio to rosiglitazone was compared.

SMILES	Binding assay (1 μLM)
COc1ccccc1[C@H](C)NC(=O)c1ccc2c(c1)CCCN2Cc1ccc(-c2ccccc2C(=O)O)cc1 [Example 23, (S)-4′-((6-((1-(2-methoxyphenyl)ethyl)carbamoyl)-3,4-dihydroquinoline-1(2H)-yl)methyl)-[1,1′-biphenyl]-2-carboxylic acid]	+++
C[C@H](NC(=O)c1ccc2c(c1)CCCN2Cc1ccc(-c2ccccc2C(=O)O)cc1)c1ccccc1F [Example 24, (S)-4′-((6-((1-(2-fluorophenyl)ethyl)carbamoyl)-3,4-dihydroquinoline-1(2H)-yl)methyl)-[1,1′-biphenyl]-2-caboxylic acid]	+++
O=C(NCc1ccccn1)c1ccc2c(c1)CCCN2Cc1ccc(-c2ccccc2C(=O)O)cc1 [Example 26, 4′-((6-((pyridine-2-ylmethyl)carbamoyl)-3,4-dihydroquinoline-1(2H)-yl)methyl)-[1,1′-biphenyl]-2-carboxylic acid]	++
O=C(NCc1ccncc1)c1ccc2c(c1)CCCN2Cc1ccc(-c2ccccc2C(=O)O)cc1 [Example 27, 4′-((6-((pyridine-4-ylmethyl)carbamoyl)-3,4-dihydroquinoline-1(2H)-yl)methyl)-[1,1′-biphenyl]-2-carboxylic acid]	+
O=C(NCc1ccccc1)c1ccc2c(c1)CCCN2Cc1ccc(-c2ccccc2C(=O)O)cc1 [Example 28, 4′-((6-(benzylcarbamoyl)-3,4-dihydroquinoline-1(2H)-yl)methyl)-[1,1′-biphenyl]-2-carboxylic acid]	++++
O=C(NCc1ccccc1Br)c1ccc2c(c1)CCCN2Cc1ccc(-c2ccccc2C(=O)O)cc1 [Example 29, 4′-((6-((2-bromobenzyl)carbamoyl)-3,4-dihydroquinoline-1(2H)-yl)methyl)-[1,1′-biphenyl]-2-carboxylic acid]	++++
O=C(NCc1ccc(Br)cc1)c1ccc2c(c1)CCCN2Cc1ccc(-c2ccccc2C(=O)O)cc1 [Example 31, 4′-((6-((4-bromobenzyl)carbamoyl)-3,4-dihydroquinoline-1 (2H)-yl)methyl)-[1,1′-biphenyl]-2-carboxylic acid]	++++
C[C@H](NC(=O)c1ccc2c(c1)CCCN2Cc1ccc(-c2ccccc2C(N)=O)cc1)c1ccc(C(F)(F)F)cc1 [Example 33, (S)-1-((2′-carbamoyl-[1,1′-biphenyl]-4-yl)methyl)-N-(1-(4-(trifluoromethyl)phenyl)ethyl)-1,2,3,4-tetrahydroquinoline-6-carboxamide]	+++
C[C@H](NC(=O)c1ccc2c(c1)CCCN2Cc1ccc(-c2ccccc2C(N)=O)cc1)c1ccc(Br)cc1 [Example 37, (S)—N-(1-(4-bromophenyl)ethyl)-1-((2′-carbamoyl-[1,1′-biphenyl]-4-yl)methyl)-1,2,3,4-tetrahydroquinoline-6-carboxamide]	+++
C[C@H](NC(=O)c1ccc2c(c1)CCCN2Cc1ccc(-c2ccccc2C(N)=O)cc1)c1cccc2ccccc12 [Example 38, (S)-1-((2′-carbamoyl-[1,1′-biphenyl]-4-yl)methyl)-N-(1-(naphthalene-1-yl)ethyl)-1,2,3,4-tetrahydroquinoline-6-carboxamide]	++
C[C@H](NC(=O)c1ccc2c(c1)CCCN2Cc1ccc(-c2ccccc2C(N)=O)cc1)c1ccc(F)c(F)c1 [Example 39, (S)-1-((2′-carbamoyl-[1,1′-biphenyl]-4-yl)methyl)-N-(1-(3,4-difluorophenyl)ethyl)-1,2,3,4-tetrahydroquinoline-6-carboxamide]	+++
COc1ccccc1[C@H](C)NC(=O)c1ccc2c(c1)CCCN2Cc1ccc(-c2ccccc2C(N)=O)cc1 [Example 41, (S)-1-((2′-carbamoyl-[1,1′-biphenyl]-4-yl)methyl)-N-(1-(2-methoxyphenyl)ethyl)-1,2,3,4-tetrahydroquinoline-6-carboxamide]	+++
C[C@H](NC(=O)c1ccc2c(c1)CCCN2Cc1ccc(-c2ccccc2C(N)=O)cc1)c1ccccc1C(F)(F)F [Example 43, (S)-1-((2′-carbamoyl-[1,1′-biphenyl]-4-yl)methyl)-N-(1-(2-(trifluoromethyl)phenyl)ethyl)-1,2,3,4-tetrahydroquinoline-6-carboxamide]	++
C[C@H](NC(=O)c1ccc2c(c1)CCCN2Cc1ccc(-c2ccccc2C(N)=O)cc1)c1cccc(F)c1 [Example 45, (S)-1-((2′-carbamoyl-[1,1′-biphenyl]-4-yl)methyl)-N-(1-(3-fluorophenyl)ethyl)-1,2,3,4-tetrahydroquinoline-6-carboxamide]	+++
C[C@H](NC(=O)c1ccc2c(c1)CCCN2Cc1ccc(-c2ccccc2C(N)=O)cc1)c1cccc(OC(F)(F)F)c1 [Example 46, (S)-1-((2′-carbamoyl-[1,1′-biphenyl]-4-yl)methyl)-N-(1-(3-(trifluoromethoxy)phenyl)ethyl)-1,2,3,4-tetrahydroquinoline-6-carboxamide]	+++

Continued, values first:

Binding assay (1 μLM)	SMILES
+++	C[C@H](NC(=O)c1ccc2c(c1)CCCN2Cc1ccc(-c2ccccc2C(=O)O)cc1)c1ccccc1C(F)(F)F [Example 25, (S)-4′-((6-((1-(2-(trifluoromethyl)phenyl)ethyl)carbamoyl)-3,4-dihydroquinoline-1(2)-yl)methyl)-[1,1′-biphenyl]-2-carboxylic acid]
+++	O=C(NCc1ccc2c(c1)OCCO2)c1ccc2c(c1)CCCN2Cc1ccc(-c2ccccc2C(=O)O)cc1 [Example 30, 4′-((6-(((2,3-dihydrobenzo[b][1,4]dioxin-6-yl)methyl)carbamoyl)-3,4-dihydroquinoline-1(2H)-yl)methyl)-[1,1′-biphenyl]-2-carboxylic acid]
+++	O=C(NCc1cccc(OC(F)(F)F)c1)c1ccc2c(c1)CCCN2Cc1ccc(-c2ccccc2C(=O)O)cc1 [Example 32, 4′-((6-((3-(trifluoromethoxy)benzyl)carbamoyl)-3,4-dihydroquinoline-1(2H)-yl)methyl)-[1,1′-biphenyl]-2-carboxylic acid]
++++	C[C@H](NC(=O)c1ccc2c(c1)CCCN2Cc1ccc(-c2ccccc2C(N)=O)cc1)c1ccc(OC(F)(F)F)cc1 [Example 34, (S)-1-((2′-carbamoyl-[1,1′-biphenyl]-4-yl)methyl)-N-(1-(4-(trifluoromethoxy)phenyl)ethyl)-1,2,3,4-tetrahydroquinoline-6-carboxamide]
+++	C[C@H](NC(=O)c1ccc2c(c1)CCCN2Cc1ccc(-c2ccccc2C(N)=O)cc1)c1cccc(Cl)c1 [Example 35, (S)-1-((2′-carbamoyl-[1,1′-biphenyl]-4-yl)methyl)-N-(1-(3-chlorophenyl)ethyl)-1,2,3,4-tetrahydroquinoline-6-carboxamide]
+++	COc1cccc([C@H](C)NC(=O)c2ccc3c(c2)CCCN3Cc2ccc(-c3ccccc3C(N)=O)cc2)c1 [Example 40, (S)-1-((2′-carbamoyl-[1,1′-biphenyl]-4-yl)methyl)-N-(1-(3-methoxyphenyl)ethyl)-1,2,3,4-tetrahydroquinoline-6-carboxamide]
+++	C[C@H](NC(=O)c1ccc2c(c1)CCCN2Cc1ccc(-c2ccccc2C(N)=O)cc1)c1ccccc1F [Example 42, (S)-1-((2′-carbamoyl-[1,1′-biphenyl]-4-yl)methyl)-N-(1-(2-fluorophenyl)ethyl)-1,2,3,4-tetrahydroquinoline-6-carboxamide]

Source: patent US20160355483A1, “COMPOUND BINDING TO PPARG BUT NOT ACTING AS PROMOTER AND PHARMACEUTICAL COMPOSITION FOR TREATING PPARG-RELATED DISEASES CONTAINING SAME AS ACTIVE INGREDIENT” (Hyundai Pharm Co., Ltd., priority 2014, published 2016)
